Measured values from ChEMBL document CHEMBL1125952, “Prevention of human leukocyte elastase-mediated lung damage by 3-alkyl-4-azetidinones” (1991).

Assays:
[1] = molecular target: T1, Neutrophil elastase (Homo sapiens) (UniProt P08246); assay: Inhibition of human leukocyte elastase-induced lung hemorrhage in hamster, after 100 ug of compound administered intratracheally.; type: functional, tissue-based
T1 sequence (whole entry): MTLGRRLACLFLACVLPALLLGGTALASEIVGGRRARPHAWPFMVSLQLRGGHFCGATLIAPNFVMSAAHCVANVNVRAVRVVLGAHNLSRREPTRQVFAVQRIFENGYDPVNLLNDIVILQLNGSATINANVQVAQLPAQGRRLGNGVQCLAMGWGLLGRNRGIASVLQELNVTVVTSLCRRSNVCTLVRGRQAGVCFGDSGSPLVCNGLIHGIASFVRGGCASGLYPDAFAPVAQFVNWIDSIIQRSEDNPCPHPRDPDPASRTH

[2] = molecular target: T1, Neutrophil elastase (Homo sapiens); assay: Inhibition of human leukocyte elastase, expressed as biomolecular rate constant.
Cricetinae gen. sp. [3] = assay: Compound at dose 20 ug was tested for percentage inhibition of HLE-induced Lung Hemorrhage in hamsters at 1 hr prior to installation of human leukocyte elastase; type: functional, Cricetulus griseus
Cricetinae gen. sp. [4] = assay: Compound at dose 20 ug was tested for percentage inhibition of HLE-induced Lung Hemorrhage in hamsters at 2 hr prior to installation of human leukocyte elastase; type: functional, Cricetulus griseus
Cricetinae gen. sp. [5] = assay: Compound at dose 20 ug was tested for percentage inhibition of HLE-induced Lung Hemorrhage in hamsters at 3 hr prior to installation of human leukocyte elastase; type: functional, Cricetulus griseus
Cricetinae gen. sp. [6] = assay: Compound at dose 20 ug was tested for percentage inhibition of HLE-induced Lung Hemorrhage in hamsters at 4 hr prior to installation of human leukocyte elastase; type: functional, Cricetulus griseus
Cricetinae gen. sp. [7] = assay: Effective dose administered intratracheally required to give 50% inhibition at 30 minutes prior to installation of human leukocyte elastase in hamster lung; type: functional, Cricetulus griseus

Compound	inhibition [1] [%]	K obs / 1 [2] [M⁻¹ s⁻¹]	Inhibition (Cricetinae gen. sp. [3]) [%]	Inhibition (Cricetinae gen. sp. [4]) [%]	Inhibition (Cricetinae gen. sp. [5]) [%]	Inhibition (Cricetinae gen. sp. [6]) [%]	ED50 (Cricetinae gen. sp. [7]) [µg]
CCC1C(=O)N(C(=O)OCc2ccccc2)C1OCC(=O)O (trans isomer)	51	955	–	–	–	–	–
CC[C@@H]1C(=O)N(S(=O)(=O)c2ccc(C)cc2)[C@@H]1C(=O)N(C)CC(=O)O	94	732	–	–	–	–	–
CCOC(=O)N1C(=O)C(CC)C1OCC(=O)O (trans isomer) [listing 1 of 2 here]	–	–	96	63	36	-5	6.3
CC[C@H]1C(=O)N(C(=O)NCc2ccccc2)[C@@H]1Oc1ccc(C(=O)O)cc1	2	3840	–	–	–	–	–
CCC1C(=O)N(S(=O)(=O)c2ccc(C)cc2)C1C(=O)OCC(=O)O (cis isomer) [listing 1 of 2 here]	–	–	66	32	11	30	24.6
CC[C@@H]1C(=O)N(S(=O)(=O)c2ccc(C)cc2)[C@H]1C(=O)N(C)CC(=O)O	74	398	–	–	–	–	–
CCOC(=O)N1C(=O)C(CC)C1Oc1ccc(C(=O)O)cc1 (trans isomer)	–	6350	–	–	–	–	–
CO[C@H]1C(=O)N2C(C(=O)N3CCC[C@H]3C(=O)O)=C(COC(C)=O)CS(=O)(=O)[C@H]12	–	–	98	85	74	-23	3.1
CC[C@H]1C(=O)N(S(=O)(=O)c2ccc(C)cc2)[C@@H]1C(=O)O	98	377	78	33	1	16	3
CC[C@H]1C(=O)N(S(=O)(=O)c2ccc(C)cc2)[C@@H]1C(=O)N(C)CC(=O)O	99	271	–	–	–	–	–
CCOC(=O)N1C(=O)C(CC)C1S(=O)(=O)CC(=O)O (trans isomer)	70	5620	–	–	–	–	–
CCC1C(=O)N(C(=O)NCc2ccccc2)C1OCC(=O)O (stereo not given)	50	129	–	–	–	–	–
CCC1C(=O)N(C(=O)NCc2ccccc2)C1Oc1ccc(CC(=O)O)cc1 (trans isomer)	–	2070	–	–	–	–	–
CCC1C(=O)N(S(=O)(=O)c2ccc(C)cc2)C1C(=O)O (cis isomer)	80	93	–	–	–	–	–
CCC1C(=O)N(S(=O)(=O)c2ccc(C)cc2)C1C(=O)OCC(=O)O (stereo in doubt)	14	9420	–	–	–	–	–
CC[C@H]1C(=O)N(S(=O)(=O)c2ccc(C)cc2)[C@H]1C(=O)N(C)CC(=O)O	61	110	–	–	–	–	–
CCOC(=O)N1C(=O)C(CC)C1[S+]([O-])CC(=O)O (stereo not given)	71	1670	–	–	–	–	–
CC[C@@H]1C(=O)N(C(=O)NCc2ccccc2)[C@H]1Oc1ccc(C(=O)O)cc1	17	339	–	–	–	–	–
CCOC(=O)N1C(=O)C(CC)C1Oc1ccc(CC(=O)O)cc1 (trans isomer)	–	4100	–	–	–	–	–
CCC1C(=O)N(S(=O)(=O)c2ccc(C)cc2)C1C(=O)OCC(=O)O (cis isomer) [listing 2 of 2 here]	73	1550	–	–	–	–	–
CCC1C(=O)N(S(=O)(=O)c2ccc(C)cc2)C1C(=O)N(C)CC(=O)O (cis isomer)	84	165	78	68	60	4	18.7

More lines, main results first:

inhibition [1] [%]	K obs / 1 [2] [M⁻¹ s⁻¹]	Compound	Inhibition (Cricetinae gen. sp. [3]) [%]	Inhibition (Cricetinae gen. sp. [4]) [%]	Inhibition (Cricetinae gen. sp. [5]) [%]	Inhibition (Cricetinae gen. sp. [6]) [%]	ED50 (Cricetinae gen. sp. [7]) [µg]
99	918	CCOC(=O)N1C(=O)[C@H](CC)[C@H]1OCC(=O)O	100	82	59	-14	3.9
81	158	CCOC(=O)N1C(=O)C(CC)C1OC(C)C(=O)O (single isomer, unassigned; isomer B)	–	–	–	–	–
86	136	CCOC(=O)N1C(=O)[C@@H](CC)[C@@H]1OCC(=O)O	92	49	6	-3	11.3
71	346	CCOC(=O)N1C(=O)C(CC)C1OC(C)C(=O)O (single isomer, unassigned; isomer A)	–	–	–	–	–
81	796	CCOC(=O)N1C(=O)C(CC)C1OCC(=O)O (cis isomer)	–	–	–	–	–
98	467	CCOC(=O)N1C(=O)C(CC)C1OCC(=O)O (trans isomer) [listing 2 of 2 here]	–	–	–	–	–
72	1000	CCOC(=O)N1C(=O)C(CC)C1OCC(=O)NCC(=O)O (stereo not given)	–	–	–	–	–
23	1250	CCOC(=O)N1C(=O)C(CC)C1OCCCC(=O)O (trans isomer)	–	–	–	–	–
56	1090	CCOC(=O)N1C(=O)C(CC)C1SCC(=O)O (trans isomer)	–	–	–	–	–
31	560	CCOC(=O)N1C(=O)C(CC)C1OCCC(=O)O (trans isomer)	–	–	–	–	–
88	1500	CCCC1C(=O)N(C(=O)OCC)C1OCC(=O)O (stereo not given)	83	31	-17	-2	6.3
